According to patent US20230391772A1, “METHODS AND COMPOSITIONS FOR TARGETED PROTEIN DEGRADATION” (Ranok Therapeutics (Hangzhou) Co. Ltd., priority 2020, published 2023):

Legend:
[1] = system: NCI-H358 human non-small cell lung cancer; experiment: NCI-H358 CCK-8 proliferation assay; assay type: cell-based; settings: NCI-H358 cells, 72 hr
Procedure, shortened: (§1)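 Percent inhibition derived from CCK-8 optical signal, normalised between DMSO-only cells (0%) and cell-free medium containing DMSO as background. Cells: MIA PaCa-2 carrying 2 KRAS(G12C) copies; NCI-H358, NCI-H23 carrying 1 copy apiece. Concentrations spanned 1.02 nM–20 μM in threefold increments.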

HSP90a protein = molecular target: T1, HSP90a protein (Homo sapiens, UniProt P07900); experiment: HSP90α-binding fluorescent polarization (FP) assay, BODIPY-labeled RNK04010 probe; settings: FP competition with RNK04010 (BODIPY-labeled), 5 nM, 300 min at 25° C.
T1 construct: purchased BPS Bioscience 50298
Procedure, shortened: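 Polarization signal was read after equilibration at 25° C, for 120 min with FITC-geldanamycin or 300 min with the BODIPY-tagged RNK04010 probe, each at 5 nM final. Compounds spanned 20 μM down to 5.2 nM in 2.5-fold dilutions against the HSP90a N-terminal domain.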

KRAS(G12C) [2] = molecular target: T2, KRAS(G12C) (Homo sapiens, UniProt P01116, G12C); experiment: KRAS(G12C)/SOS1 homogeneous time-resolved fluorescence (HTRF) assay; set-up: purchased Cisbio 63ADK000CB16PEG; settings: absence of GTP, 4° C. for 3 hr, read-out: KRAS (G12C) binding
Procedure, shortened: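 HTRF kit measuring compound-induced block of KRAS(G12C)-SOS1 interaction without GTP. Compounds tested as 3-fold serial dilutions down to 1.02 nM, incubated with reaction components 3 h at 4 °C in sealed plates before fluorescence read.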

[3] = system: MIA PaCa-2 human pancreatic carcinoma; experiment: MIA PaCa-2 CCK-8 proliferation assay; assay type: cell-based; settings: MIA PaCa-2 cells
Procedure, shortened: as §1

KRAS(G12C) [4] = molecular target: T2, KRAS(G12C); experiment: KRAS(G12C) Western blot protein degradation assay in LU65A cells; assay type: cell-based; set-up: LU65A human lung cancer cell line, which expresses KRAS(G12C); host or cells: LU65A; settings: 6 hr
Protocol: The following cancer cell lines were employed: BT-474 human breast carcinoma (ATCC, #HTB-20); MIA PaCa-2 human pancreatic carcinoma [2 copies KRAS(G12C)](ATCC, #CRL-1420); NCI-H23 human non-small cell lung cancer [1 copy KRAS(G12C)](ATCC, #CRL-5800); NCI-H358 human non-small cell lung cancer [1 copy KRAS(G12C)](ATCC, #CRL-5807); LU65A human lung carcinoma (Pharmaron, Beijing, China). Cell lines were cultured essentially according to ATCC and Pharmaron recommendations.
KRAS(G12C) Western Blot Protein Degradation Assay
The MIA PaCa-2 human pancreatic carcinoma cell line and LU65A human lung cancer cell line, which expresses KRAS(G12C), were seeded in 6- or 12-well tissue culture plates, and after 1 hr, test compounds were added at various concentrations and incubated at 37° C./5% CO2 for 48 hr (MIA Paca-2) and 6 hr (LU65A) respectively. Cells were then washed with cold PBS, aspirated and cold RIPA buffer containing a protease/phosphatase inhibitor cocktail was added to lyse cells. After centrifugation, the total protein concentrations of cell lysates were determined using the BCA protein assay. Samples were normalized for equivalent protein concentrations, 5×SDS-PAGE loading buffer added and denatured at 100° C. for 10 min. 20 μl of each sample/well was loaded on a SDS-PAGE gel and electrophoresed for 20 min at 80 V, then 120 V for 1.5 hr. Gels were then electroblotted to nitrocellulose membranes using a wet-transfer method at 250 mA for 2.5 hr. Membranes were incubated with blocking buffer for 1 hr and washed 3 times with TBST for 5 min. Membranes were then incubated with anti-KRAS (Sigma-Aldrich, #SAB1404011) and anti-β-Actin monoclonal antibodies (Cell Signaling Technology, #3700) diluted in blocking buffer at 4° C. overnight per the manufacturer's recommendations. After washing 3 times, blots were incubated with appropriately labeled secondary antibodies for 1 hr at room temperature and washed again. Fluorescence imaging and quantitation was performed using a LI-COR Odyssey. Results was analyzed using GraphPad Prism 7 software. Compound degradation of was determined by the following equation and DC50 values (the concentration at which 50% of the maximal degradation of KRAS occurs) calculated using GraphPad Prism 7 software:
% Inhibition=100−(D−B)/(S−B)*100%. • S: Fluorescence intensity of cells with antibody • D: Fluorescence intensity of compound-treated cells with antibody • B: Fluorescence intensity of cells without antibody

T2 sequence (P01116 1-188 isoform P01116-2 G12C): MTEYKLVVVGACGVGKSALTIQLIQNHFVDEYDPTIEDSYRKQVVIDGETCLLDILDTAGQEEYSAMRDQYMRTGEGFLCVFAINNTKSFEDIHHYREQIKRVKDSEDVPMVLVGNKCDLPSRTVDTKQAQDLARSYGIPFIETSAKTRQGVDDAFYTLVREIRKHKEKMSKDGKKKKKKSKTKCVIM

Row | Compound | EC50 [1] | IC50 (HSP90a protein) | IC50 (KRAS(G12C) [2]) | EC50 ([3]; Homo sapiens, MIA PaCa-2, 72 h) | DC50 (KRAS(G12C) [4]) | EC50 ([3]; 72 hr)
1 | C=CC(=O)N1CCN(c2nc(NCCC(=O)N3CCC(CN4CCN(Cc5ccc(-n6c(C(=O)NCC(F)(F)F)nnc6-c6cc(CC)c(O)cc6O)cc5)CC4)CC3)nc3c2CCN(c2cccc4cccc(Cl)c24)C3)C[C@H]1CC#N [Compound 80, (R)-4-(4-((4-((1-(3-((4-(4-acryloyl-3-(cyanomethyl)piperazin-1-yl)-7-(8-chloronaphthalen-1-yl)-5,6,7,8-tetrahydropyrido[3,4-d]pyrimidin-2-yl)amino)propanoyl)piperidin-4-yl)methyl)piperazin-1-yl)methyl)phenyl)-5-(5-ethyl-2,4-dihydroxyphenyl)-N-(2,2,2-trifluoroethyl)-4H-1,2,4-triazole-3-carboxamide, trifluoroacetic acid] | 0.1 to 1 µM | 0.1 to 1 µM | > 1 µM |  |  | 
2 | C=CC(=O)N1CCN(c2nc(NCCC(=O)N3CCC(Cc4ccc(CN(C)Cc5ccc(-n6c(C(=O)NCC(F)(F)F)nnc6-c6cc(C(C)C)c(O)cc6O)cc5)cc4)CC3)nc3c2CCN(c2cccc4ccccc24)C3)C[C@H]1CC#N [Compound 110, (R)-4-(4-(((4-((1-(3-((4-(4-acryloyl-3-(cyanomethyl)piperazin-1-yl)-7-(naphthalen-1-yl)-5,6,7,8-tetrahydropyrido[3,4-d]pyrimidin-2-yl)amino)propanoyl)piperidin-4-yl)methyl)benzyl)(methyl)amino)methyl)phenyl)-5-(2,4-dihydroxy-5-isopropylphenyl)-N-(2,2,2-trifluoroethyl)-4H-1,2,4-triazole-3-carboxamide, trifluoroacetic acid] | > 1 µM | > 1 µM |  | > 1 µM |  | 
3 | CC(=O)N1CCN(c2nc(NCCC(=O)N3CCC(Cc4ccc(CN(C)Cc5ccc(-n6c(C(=O)NCC(F)(F)F)nnc6-c6cc(C(C)C)c(O)cc6O)cc5)cc4)CC3)nc3c2CCN(c2cccc4ccccc24)C3)C[C@H]1CC#N [Compound 123, (R)-4-(4-(((4-((1-(3-((4-(4-acetyl-3-(cyanomethyl)piperazin-1-yl)-7-(naphthalen-1-yl)-5,6,7,8-tetrahydropyrido[3,4-d]pyrimidin-2-yl)amino)propanoyl)piperidin-4-yl)methyl)benzyl)(methyl)amino)methyl)phenyl)-5-(2,4-dihydroxy-5-isopropylphenyl)-N-(2,2,2-trifluoroethyl)-4H-1,2,4-triazole-3-carboxamide, trifluoroacetic acid] | 0.1 to 1 µM | > 1 µM |  | 0.1 to 1 µM |  | 
4 | C=CC(=O)N1CCN(c2nc(OC[C@@H]3CCCN3C(=O)C3CCN(Cc4ccc(-n5c(O)nnc5-c5cc(C(C)C)c(O)cc5O)cc4)CC3)nc3c2CCN(c2cccc4cccc(C)c24)C3)C[C@@H]1CC#N [Compound 155, 2-((S)-1-acryloyl-4-(2-(((S)-1-(1-(4-(3-(2,4-dihydroxy-5-isopropylphenyl)-5-hydroxy-4H-1,2,4-triazol-4-yl)benzyl)piperidine-4-carbonyl)pyrrolidin-2-yl)methoxy)-7-(8-methylnaphthalen-1-yl)-5,6,7,8-tetrahydropyrido[3,4-d]pyrimidin-4-yl)piperazin-2-yl)acetonitrile, trifluoroacetic acid] | > 1 µM | 0.1 to 1 µM | > 1 µM |  |  | 
5 | CC(C)c1cc(-c2nnc(C(=O)NCC(F)(F)F)n2-c2ccc(CC3CCN(Cc4ccc(CNC(=O)CCNc5nc6c(c(N7CCN(C(=O)C(C)(C)C)CC7)n5)CCN(c5cc(O)cc7ccccc57)C6)cc4)CC3)cc2)c(O)cc1O [Compound 156] | 0.1 to 1 µM | 0.1 to 1 µM | > 1 µM |  |  | 
6 | C=C(F)C(=O)N1CCN(c2nc(OC[C@@H]3CCCN3CCCOCCC(=O)NCc3ccc(-n4c(O)nnc4-c4cc(C(C)C)c(O)cc4O)cc3)nc3c2CCN(c2cccc4cccc(Cl)c24)C3)C[C@@H]1CC#N [Compound 160, 3-(3-((S)-2-(((7-(8-chloronaphthalen-1-yl)-4-((S)-3-(cyanomethyl)-4-(2-fluoroacryloyl)piperazin-1-yl)-5,6,7,8-tetrahydropyrido[3,4-d]pyrimidin-2-yl)oxy)methyl)pyrrolidin-1-yl)propoxy)-N-(4-(3-(2,4-dihydroxy-5-isopropylphenyl)-5-hydroxy-4H-1,2,4-triazol-4-yl)benzyl)propenamide] | > 1 µM | < 0.1 µM | > 1 µM | > 1 µM |  | 
7 | C=C(F)C(=O)N1CCN(c2nc(OC[C@@H]3CCCN3CCCOCCC(=O)NCc3ccc(-n4c(O)nnc4-c4cc(CC)c(O)cc4O)cc3)nc3c2CCN(c2cccc4cccc(Cl)c24)C3)C[C@@H]1CC#N [Compound 161, 3-(3-((S)-2-(((7-(8-chloronaphthalen-1-yl)-4-((S)-3-(cyanomethyl)-4-(2-fluoroacryloyl)piperazin-1-yl)-5,6,7,8-tetrahydropyrido[3,4-d]pyrimidin-2-yl)oxy)methyl)pyrrolidin-1-yl)propoxy)-N-(4-(3-(5-ethyl-2,4-dihydroxyphenyl)-5-hydroxy-4H-1,2,4-triazol-4-yl)benzyl)propanamide] | > 1 µM | 0.1 to 1 µM | 0.1 to 1 µM | > 1 µM |  | 
8 | C=CC(=O)N1CCN(c2nc(OCCN3CCC(C(=O)N4CCN(Cc5ccc(-n6c(C(=O)NCC(F)(F)F)nnc6-c6cc(C)c(O)cc6O)cc5)CC4)CC3)nc3c2CCN(c2cccc4cccc(Cl)c24)C3)C[C@@H]1CC#N [Compound 253, (S)-4-(4-((4-(1-(2-((4-(4-acryloyl-3-(cyanomethyl)piperazin-1-yl)-7-(8-chloronaphthalen-1-yl)-5,6,7,8-tetrahydropyrido[3,4-d]pyrimidin-2-yl)oxy)ethyl)piperidine-4-carbonyl)piperazin-1-yl)methyl)phenyl)-5-(2,4-dihydroxy-5-methylphenyl)-N-(2,2,2-trifluoroethyl)-4H-1,2,4-triazole-3-carboxamide] |  |  |  |  | > 1 µM | 0.1 to 1 µM
9 | C=CC(=O)N1CCN(c2nc(OCCN3CCC(C(=O)N4CCN(Cc5ccc(-n6c(C(=O)NCC(F)(F)F)nnc6-c6cc(C)c(O)cc6O)cc5)CC4)CC3)nc3c2CCN(c2cccc4cccc(Cl)c24)C3)C[C@@H]1CC#N [Compound 254, (S)-4-(4-((4-(1-(2-((4-(4-acryloyl-3-(cyanomethyl)piperazin-1-yl)-7-(8-chloronaphthalen-1-yl)-5,6,7,8-tetrahydropyrido[3,4-d]pyrimidin-2-yl)oxy)ethyl)piperidine-4-carbonyl)piperazin-1-yl)methyl)phenyl)-5-(2,4-dihydroxy-5-methylphenyl)-N-(2,2,2-trifluoroethyl)-4H-1,2,4-triazole-3-carboxamide] |  |  |  |  | > 1 µM | > 1 µM
10 | C=CC(=O)N1CCN(c2nc(OCCN3CCN(C(=O)C4CCN(Cc5ccc(-n6c(C(N)=O)nnc6-c6cc(C(C)C)c(O)cc6O)cc5)CC4)C[C@@H]3CN(C)C)nc3c2CCN(c2cccc4cccc(Cl)c24)C3)C[C@@H]1CC#N [Compound 260, 4-(4-((4-((S)-4-(2-((4-((S)-4-acryloyl-3-(cyanomethyl)piperazin-1-yl)-7-(8-chloronaphthalen-1-yl)-5,6,7,8-tetrahydropyrido[3,4-d]pyrimidin-2-yl)oxy)ethyl)-3-((dimethylamino)methyl)piperazine-1-carbonyl)piperidin-1-yl)methyl)phenyl)-5-(2,4-dihydroxy-5-isopropylphenyl)-4H-1,2,4-triazole-3-carboxamide] |  |  |  | < 0.1 µM | > 1 µM | 
